Reference: PubChem BioAssay AID1259411 (Chemical Carcinogenesis Research Information System (CCRIS), 2018)
The source made the active and inactive calls. How the calls were made is not given here.

System: rodent carcinogenicity bioassays, tumor incidence
Assay: CCRIS carcinogenicity studies
Method in brief: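 NCI-built, expert-reviewed records of carcinogenicity and related test outcomes (mutagenicity, tumor promotion/inhibition) compiled from published and report sources, historical span 1985-2011, not updated.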

## O=[N+]([O-])c1ccc(Nc2ccc(Nc3ccccc3)c(S(=O)(=O)O)c2)c([N+](=O)[O-])c1
Species: MOUSE, Strain/Sex: B6C3F1/FEMALE, Route: GAVAGE, Dose: 0, 250, 500 MG/KG IN CORN OIL 5D/WK FOR 103 WK (STUDY DURATION: 104 WK), Dose: 0, 250, 500 MG/KG IN CORN OIL 5D/WK FOR 103 WK (STUDY DURATION: 104 WK)
  carcinogen call: inactive; negative
Species: MOUSE, Strain/Sex: B6C3F1/MALE, Route: GAVAGE, Dose: 0, 125, 250 MG/KG IN CORN OIL 5D/WK FOR 103 WK (STUDY DURATION: 104 WK), Dose: 0, 125, 250 MG/KG IN CORN OIL 5D/WK FOR 103 WK (STUDY DURATION: 104 WK)
  carcinogen call: inactive; negative
Species: RAT, Strain/Sex: F344/FEMALE, Route: GAVAGE, Dose: 0, 375, 750 MG/KG IN CORN OIL 5D/WK FOR 103 WK (STUDY DURATION: 105 WK), Dose: 0, 375, 750 MG/KG IN CORN OIL 5D/WK FOR 103 WK (STUDY DURATION: 105 WK), Tumor Site: Type of Lesion: KIDNEY: TRANSITIONAL CELL CARCINOMA
  carcinogen call: active; positive
Species: RAT, Strain/Sex: F344/MALE, Route: GAVAGE, Dose: 0, 375 MG/KG IN CORN OIL 5D/WK FOR 103 WK (STUDY DURATION: 104 WK)
  carcinogen call: inactive; negative

## NC(=O)NC1NC(=O)NC1=O (stereo not given)
Species: RAT, Strain/Sex: F344/FEMALE, Route: ORAL, Dose: 0, 2000 PPM IN DIET FOR 106 WK (STUDY DURATION: 130 WK)
  carcinogen call: inactive; negative
Species: RAT, Strain/Sex: F344/MALE, Route: ORAL, Dose: 0, 2000 PPM IN DIET FOR 106 WK (STUDY DURATION: 130 WK)
  carcinogen call: inactive; negative

## CCc1ccccc1
Species: MOUSE, Strain/Sex: B6C3F1/FEMALE, Route: INHALATION, Dose: 0, 75, 250, 750 PPM 6 HR/D 5 D/WK FOR 103 WK (STUDY DURATION: 104 WK), Dose: 0, 75, 250, 750 PPM 6 HR/D 5 D/WK FOR 103 WK (STUDY DURATION: 104 WK), Tumor Site: Type of Lesion: LIVER: HEPATOCELLULAR ADENOMA, HEPATOCELLULAR ADENOMA OR CARCINOMA
  carcinogen call: active; positive
Species: MOUSE, Strain/Sex: B6C3F1/MALE, Route: INHALATION, Dose: 0, 75, 250, 750 PPM 6 HR/D 5 D/WK FOR 103 WK (STUDY DURATION: 104 WK), Dose: 0, 75, 250, 750 PPM 6 HR/D 5 D/WK FOR 103 WK (STUDY DURATION: 104 WK), Tumor Site: Type of Lesion: LUNG: ALVEOLAR/BRONCHIOLAR ADENOMA, ALVEOLAR/BRONCHIOLAR ADENOMA OR CARCINOMA
  carcinogen call: active; positive
Species: RAT, Strain/Sex: F344/FEMALE, Route: INHALATION, Dose: 0, 75, 250, 750 PPM 6 HR/D 5 D/WK FOR 104 WK (STUDY DURATION: 105 WK), Dose: 0, 75, 250, 750 PPM 6 HR/D 5 D/WK FOR 104 WK (STUDY DURATION: 105 WK), Tumor Site: Type of Lesion: KIDNEY (RENAL TUBULE): ADENOMA
  carcinogen call: active; positive
Species: RAT, Strain/Sex: F344/MALE, Route: INHALATION, Dose: 0, 75, 250, 750 PPM 6 HR/D 5 D/WK FOR 104 WK (STUDY DURATION: 105 WK), Dose: 0, 75, 250, 750 PPM 6 HR/D 5 D/WK FOR 104 WK (STUDY DURATION: 105 WK), Tumor Site: Type of Lesion: KIDNEY (RENAL TUBULE): ADENOMA
  carcinogen call: active; positive
Species: RAT, Strain/Sex: STRAIN-CD/FEMALE, Route: INTRAGASTRIC, Dose: 0, 500 MG/KG IN OLIVE OIL 1/D 4-5 D/WK FOR 104 WK (STUDY DURATION: 104 WK)
  carcinogen call: inactive; negative
Species: RAT, Strain/Sex: STRAIN-CD/MALE, Route: INTRAGASTRIC, Dose: 0, 500 MG/KG IN OLIVE OIL 1/D 4-5 D/WK FOR 104 WK (STUDY DURATION: 104 WK)
  carcinogen call: inactive; negative

## [Cl][Hg][Cl]
Species: MOUSE, Strain/Sex: B6C3F1/FEMALE, Route: GAVAGE, Dose: 0, 5, 10 MG/KG IN DEIONIZED WATER 5 D/WK FOR 103-104 WK (STUDY DURATION: 104 WK), Dose: 0, 5, 10 MG/KG IN DEIONIZED WATER 5 D/WK FOR 103-104 WK (STUDY DURATION: 104 WK)
  carcinogen call: inactive; negative
Species: MOUSE, Strain/Sex: B6C3F1/MALE, Route: GAVAGE, Dose: 0, 5, 10 MG/KG IN DEIONIZED WATER 5 D/WK FOR 103-104 WK (STUDY DURATION: 104 WK), Dose: 0, 5, 10 MG/KG IN DEIONIZED WATER 5 D/WK FOR 103-104 WK (STUDY DURATION: 104 WK), Tumor Site: Type of Lesion: KIDNEY (RENAL TUBLE): ADENOMA, ADENOCARCINOMA
  carcinogen call: equivocal
Species: MOUSE, Strain/Sex: SWISS/FEMALE, Route: ORAL, Dose: 0, 5 PPM (HG) IN DRINKING WATER FOR DURATION OF STUDY (STUDY DURATION: LIFE SPAN)
  carcinogen call: inactive; negative
Species: MOUSE, Strain/Sex: SWISS/MALE, Route: ORAL, Dose: 0, 5 PPM (HG) IN DRINKING WATER FOR DURATION OF STUDY (STUDY DURATION: LIFE SPAN)
  carcinogen call: inactive; negative
Species: RAT, Strain/Sex: F344/FEMALE, Route: GAVAGE, Dose: 0, 2.5, 5 MG/KG IN DEIONIZED WATER 5 D/WK FOR 103-104 WK (STUDY DURATION: 104 WK), Dose: 0, 2.5, 5 MG/KG IN DEIONIZED WATER 5 D/WK FOR 103-104 WK (STUDY DURATION: 104 WK), Tumor Site: Type of Lesion: FORESTOMACH: SQUAMOUS CELL PAPILLOMA
  carcinogen call: equivocal
Species: RAT, Strain/Sex: F344/MALE, Route: GAVAGE, Dose: 0, 2.5, 5 MG/KG IN DEIONIZED WATER 5 D/WK FOR 103-104 WK (STUDY DURATION: 104 WK), Dose: 0, 2.5, 5 MG/KG IN DEIONIZED WATER 5 D/WK FOR 103-104 WK (STUDY DURATION: 104 WK), Tumor Site: Type of Lesion: THYROID GLAND: FOLLICULAR CELL CARCINOMA, FOLLICULAR CELL CARCINOMA OR ADENOMA, FORESTOMACH: SQUAMOUS CELL PAPILLOMA
  carcinogen call: active; positive

## CCOc1ccc(NC(C)=O)cc1[N+](=O)[O-]
Species: MOUSE, Strain/Sex: B6C3F1/FEMALE, Route: ORAL, Dose: 0, 0.73, 1.46% OF DIET, TWA, Dose: 0, 0.73, 1.46% OF DIET, TWA
  carcinogen call: inactive; negative
Species: MOUSE, Strain/Sex: B6C3F1/MALE, Route: ORAL, Dose: 0, 0.73, 1.46% OF DIET, TWA, Dose: 0, 0.73, 1.46% OF DIET, TWA, Tumor Site: Type of Lesion: LIVER: HEPATOCELLULAR CARCINOMA OR ADENOMA
  carcinogen call: active; positive
Species: RAT, Strain/Sex: F344/FEMALE, Route: ORAL, Dose: 0, 0.18, 0.36% OF DIET, TWA, Dose: 0, 0.18, 0.36% OF DIET, TWA
  carcinogen call: inactive; negative
Species: RAT, Strain/Sex: F344/MALE, Route: ORAL, Dose: 0, 0.18, 0.36% OF DIET, TWA, Dose: 0, 0.18, 0.36% OF DIET, TWA
  carcinogen call: inactive; negative

## CCC(=O)C(CC(C)N(C)C)(c1ccccc1)c1ccccc1 (stereo not given)
Species: MOUSE, Strain/Sex: B6C3F1/FEMALE, Route: ORAL, Dose: 0, 15, 60 MG/KG IN DIET FOR DURATION OF STUDY (STUDY DURATION: 108 WK), Dose: 0, 15, 60 MG/KG IN DIET FOR DURATION OF STUDY (STUDY DURATION: 108 WK)
  carcinogen call: inactive; negative
Species: MOUSE, Strain/Sex: B6C3F1/MALE, Route: ORAL, Dose: 0, 15, 60 MG/KG IN DIET FOR DURATION OF STUDY (STUDY DURATION: 108 WK), Dose: 0, 15, 60 MG/KG IN DIET FOR DURATION OF STUDY (STUDY DURATION: 108 WK)
  carcinogen call: inactive; negative
Species: RAT, Strain/Sex: F344/FEMALE, Route: ORAL, Dose: 0, 28, 88 MG/KG IN DIET FOR DURATION OF STUDY (STUDY DURATION: 108 WK), Dose: 0, 28, 88 MG/KG IN DIET FOR DURATION OF STUDY (STUDY DURATION: 108 WK)
  carcinogen call: inactive; negative
Species: RAT, Strain/Sex: F344/MALE, Route: ORAL, Dose: 0, 16, 46 MG/KG IN DIET FOR DURATION OF STUDY (STUDY DURATION: 108 WK), Dose: 0, 16, 46 MG/KG IN DIET FOR DURATION OF STUDY (STUDY DURATION: 108 WK)
  carcinogen call: inactive; negative

## CC(C)(Oc1ccc(C2CC2(Cl)Cl)cc1)C(=O)O (stereo not given)
Species: RAT, Strain/Sex: F344/MALE, Route: ORAL, Dose: 10 MG/KG IN DIET FOR 60 WK, Tumor Site: Type of Lesion: LIVER: HEPATOCELLULAR CARCINOMA
  carcinogen call: active; positive

## Nc1ccc2c(n1)[nH]c1ccccc12
Species: MOUSE, Strain/Sex: CDF1/FEMALE, Route: ORAL, Dose: 0, 0.08% IN DIET FOR UP TO 685 D (STUDY DURATION: 685 D), Tumor Site: Type of Lesion: LIVER: HEPATOCELLULAR ADENOMA OR CARCINOMA, BLOOD VESSELS: HEMANGIOENDOTHELIAL SARCOMA
  carcinogen call: active; positive
Species: MOUSE, Strain/Sex: CDF1/MALE, Route: ORAL, Dose: 0, 0.08% IN DIET FOR UP TO 685 D (STUDY DURATION: 685 D), Tumor Site: Type of Lesion: LIVER: HEPATOCELLULAR ADENOMA OR CARCINOMA, BLOOD VESSELS: HEMANGIOENDOTHELIOMA OR HEMANGIOENDOTHELIAL SARCOMA
  carcinogen call: active; positive
Species: RAT, Strain/Sex: SPRAGUE-DAWLEY/FEMALE, Route: ORAL, Dose: 0, 75 MG/KG IN 5 ML CORN OIL 1/D ON DAYS 43-47 AND 50-54 OF AGE ADMINISTERED TO RATS PLACED ON HIGH-FAT (23.5% CORN OIL)
  carcinogen call: inactive; negative
